Experimental data from patent publication US8461085B2, “Bioherbicide from Festuca spp” (Cornell Research Foundation, Inc., priority 2005, dated 2013).
“Also recorded” adds a separate entry of the source. Read-outs that look alike come from different tables or passages of the source.

Key:
[1] = Dissolution in aqueous solution; format: physicochemical
Cress = test: Weed and crop Petri dish bioassay, radicle length; format: in vivo, Lepidium sativum L.
Protocol: (§1) m-Tyrosine activity was bioassayed using selected weed and crop species. Growth inhibition as measured by radicle elongation was evaluated in dandelion (Taraxacum officinale Weber in […].), large crabgrass (Digitaria sanguinalis (L.) Scop.), velvetleaf (Abutilon theophrasti Medicus), black medic (Medicago lupulina L.), curly cress (Lepidium sativum L.), bamyardgrass (Echinochloa crus-galli.(L.) Beauv.), lettuce (Lactuca sativa L.), purslane (Portulaca oleracea L.), annual bluegrass (Poa annua L.), birdsfoot trefoil (Lotus corniculatus L.), broadleaf plantain (Plantago major L.), mouseear chickweed (Cerastium vulgatum L.), common chickweed (Stellaria media (L.) Vill.), white clover (Trifolium repens L.), wheat (Triticum aestivum L.), tomato (Lycopersicon esculentum var. esculentum P. Mill.), tobacco (Nicotiana tobacum L.), and sorghum sudangrass hybrid (Sorghum bicolor x Sudanese). Weeds were purchased from HerbiSeeds, England, tomato seeds were purchased from Agway (Ithaca N.Y.), and wheat, sudex and tobacco where donated by Pioneer Seeds (Johnson, Iowa). Seeds were sterilized by a water: ethanol mixture (1:1) for one minute and rinsed three times thoroughly in distilled water. […] At the end of the incubation period, radicle length was measured. […]

[2] = test system: fine leaf fescue seedlings cultivar Intrigue; test: Autotoxicity Petri dish bioassay with fine leaf fescue seeds; format: in vivo, Festuca rubra L. Subsp. Commutata Gaud.; settings: 20 μM to 160 μM
[3] = test system: selected monocot and dicot plants; test: General phytotoxicity Petri dish bioassay, weed and crop species taken together; format: in vivo
Protocol: Using the Petri dish bioassay described above, various weed and crop species were tested for their susceptibility to m-tyrosine. Concentrations evaluated were 10, 20, 40, 80, 160, and 320 μM m-tyrosine dissolved in water.
(§2) m-Tyrosine activity was bioassayed using selected weed and crop species. Growth inhibition as measured by radicle elongation was evaluated in dandelion (Taraxacum officinale Weber in Weggers.), large crabgrass (Digitaria sanguinalis (L.) Scop.), velvetleaf (Abutilon theophrasti Medicus), black medic (Medicago lupulina L.), curly cress (Lepidium sativum L.), bamyardgrass (Echinochloa crus-galli.(L.) Beauv.), lettuce (Lactuca sativa L.), purslane (Portulaca oleracea L.), annual bluegrass (Poa annua L.), birdsfoot trefoil (Lotus corniculatus L.), broadleaf plantain (Plantago major L.), mouseear chickweed (Cerastium vulgatum L.), common chickweed (Stellaria media (L.) Vill.), white clover (Trifolium repens L.), wheat (Triticum aestivum L.), tomato (Lycopersicon esculentum var. esculentum P. Mill.), tobacco (Nicotiana tobacum L.), and sorghum sudangrass hybrid (Sorghum bicolor x Sudanese). Weeds were purchased from HerbiSeeds, England, tomato seeds were purchased from Agway (Ithaca N.Y.), and wheat, sudex and tobacco where donated by Pioneer Seeds (Johnson, Iowa). Seeds were sterilized by a water: ethanol mixture (1:1) for one minute and rinsed three times thoroughly in distilled water. The simple phytotoxicity bioassay utilized consisted of the evaluation of radicle length of ten sterilized seeds of each weed/crop deposited on a filter paper containing the appropriate m-tyrosine test solution in 4.5 cm Petri dishes. The amino acid analog, m-tyrosine was purchased from Sigma and formulated at concentrations of 0, 20, 40, 80, 160 and 320 μM by initially dissolving in aqueous solutions. A 1000 μL aliquot of the appropriate test solution was added to individual Petri dishes lined with Whatman No. 1 filter paper. Control dishes received 1000 μL of water. After seeds were placed on moistened filter paper, Petri dishes were transferred to a controlled environment with a light regime of 45,33 photon m^−2 s^−1 and maintained at an average temperature of 25° C. for 7 days. At the end of the incubation period, radicle length was measured. Treatments were replicated three times, and the experiment for each plant species tested was repeated three times.

Broadleaf Plantain = test: Weed and crop Petri dish bioassay, radicle length; format: in vivo, Plantago major L.
Protocol: as §1

Large Crabgrass = test: Weed and crop Petri dish bioassay, radicle length; format: in vivo, Digitaria sanguinalis (L.) Scop.
Protocol: as §2, with “[…].),” for “Weggers.),”, “The amino acid analog, m-tyrosine was purchased from Sigma and formulated at concentrations of 0, 20, 40, 80, 160 and 320 μM by initially dissolving in aqueous solutions.” left out, “m^-2 s^-1” for “m^−2 s^−1”

Tobacco = test: Weed and crop Petri dish bioassay, radicle length; format: in vivo, Nicotiana tobacum L.
Protocol: as §2, with “[…].),” for “Weggers.),”, “The amino acid analog, m-tyrosine was purchased from Sigma and formulated at concentrations of 0, 20, 40, 80, 160 and 320 μM by initially dissolving in aqueous solutions.” left out, “m^-2 s^-1” for “m^−2 s^−1”

Wheat = test: Weed and crop Petri dish bioassay, radicle length; format: in vivo, Triticum aestivum L.
Protocol: as §1

Bacillus cereus = test: Antibacterial disc assay; format: cell-based
Protocol: (§3) m-Tyrosine was evaluated for its effect on several bacteria (Bacillus cereus, Bacillus subtilis, and Escherichia coli) grown on nutrient agar (Difco) plates (9 cm) and a fungal culture (Metarhizium anisopliae ([…].)) grown on potato dextrose agar (Difco) plates. These plates were spread with either 0.5 mL aliquots of a liquid bacterial culture grown for 18 h in nutrient broth or with 0.5 mL of a fungal spore suspension (1×10^6 spores/mL), and were allowed to dry for approximately 30 minutes. […] A disc moistened with 10 μl of water served as negative control, and positive controls consisted of discs spiked with ampicillin and tetracycline (5 μg). The plates were placed in an incubator at 25° C., and visually checked for zones of inhibition for up to four days. All experiments were performed in triplicate.

Bacillus subtilis = test: Antibacterial disc assay; format: cell-based
Protocol: as §3

Escherichia coli = test: Antibacterial disc assay; format: cell-based
Protocol: as §3

[4] = test system: lettuce seedlings (Lactuca sativa L.); test: Soil bioassay, lettuce root growth; format: in vivo; settings: for IC50: Lactuca sativa; for Root Length of Lettuce Seedlings: m-tyrosine at 160 μM
Sudex = test: Weed and crop Petri dish bioassay, radicle length; format: in vivo, Sorghum bicolor x Sudanese
Protocol: as §1

Dandelion = test: Weed and crop Petri dish bioassay, radicle length; format: in vivo, Taraxacum officinale Weber in Weggers.
Protocol: as §2, with “[…].),” for “Weggers.),”, “The amino acid analog, m-tyrosine was purchased from Sigma and formulated at concentrations of 0, 20, 40, 80, 160 and 320 μM by initially dissolving in aqueous solutions.” left out, “m^-2 s^-1” for “m^−2 s^−1”

SMILES: N[C@@H](Cc1cccc(O)c1)C(=O)O [m-tyrosine, 3-hydroxyphenylalanine]
- dissolution in an aqueous solution [1]: easily dissolved
- I10 (Cress): 15 µM
- IC50 (Cress; Lepidium sativum, read-out: I50): 23 µM
- root elongation of fescue seedlings [2]: not affected; also recorded: No inhibition
- effect on shoot elongation ([3]; in vivo): inhibitory to shoot elongation
- effect on seed germination ([3]; numerous seedling indicators): did not affect seed germination per se
- IC50 ([3]; range over all plants exposed, read-out: concentration required to observe 50% inhibition of radicle elongation): 10 to 260 µM
- IC50 ([3]; range over other species evaluated (apart from mouseear chickweed), read-out: concentration for 50% inhibition of radicle elongation): 14 to 253 µM
- I10 (Broadleaf Plantain): 30 µM
- IC50 (Broadleaf Plantain; Plantago major, read-out: I50): 72 µM
- I10 (Large Crabgrass): 20 µM
- I100 (Large Crabgrass): 320 µM
- IC50 (Large Crabgrass; Digitaria sanguinalis, read-out: I50): 38 µM
- I10 (Tobacco): 30 µM
- I100 (Tobacco): 160 µM
- IC50 (Tobacco; Nicotiana tabacum, read-out: I50): 40 µM
- I10 (Wheat): 80 µM
- IC50 (Wheat; Triticum aestivum, read-out: I50): 157 µM
- growth inhibition (Bacillus cereus): not inhibited
- growth inhibition (Bacillus subtilis): not inhibited
- growth inhibition (Escherichia coli): not inhibited
- IC50 ([4]; in soil, read-out: I50, 50% inhibition of root growth of lettuce): ~30 µM
- IC50 ([4]; soil media, lettuce, read-out: concentration reducing root elongation by 50%): 4000 µM
- Root Length of Lettuce Seedlings ([4]; ammonium nitrate 0 mM): 2.07 (0.02) cm
- Root Length of Lettuce Seedlings ([4]; ammonium nitrate 0.125 mM): 3.56 (0.07) cm
- Root Length of Lettuce Seedlings ([4]; ammonium nitrate 0.25 mM): 4.82 (0.1) cm
- Root Length of Lettuce Seedlings ([4]; ammonium nitrate 0.5 mM): 4.8 (0.09) cm
- Root Length of Lettuce Seedlings ([4]; ammonium nitrate 1.0 mM): 4.8 (0.12) cm
- reduction of the inhibition of radicle elongation ([4]; with 1 mM NH4NO3 in comparison to m-tyrosine without soil NH4NO3): approximately 25%
- I10 (Sudex): 50 µM
- IC50 (Sudex; Sorghum bicolor, read-out: I50): 151 µM
- I10 (Dandelion): 10 µM
- I100 (Dandelion): 160 µM
- IC50 (Dandelion; Taraxacum officinale, read-out: I50): 39 µM
